# Test results published in patent publication US5264209A, “Modified HIL-6” (Kirin-Amgen, Inc., priority 1990, dated 1993).
# Legend:
# [1] = test system: platelets in peripheral blood; assay: In vivo platelet production in mice, once a day for five days (Examples 13 and 16); design: species or system Balb/c mice; details: sixth day
# Procedure: (§1) In Examples 7-10 and 13-17, the PEGylated hIL-6 polypeptides of the present invention were dissolved in PBS containing 0.1% normal mouse serum. The concentration of the solutions was adjusted so that the final volume administered was 100 μl.
# The hIL-6 produced in Example 4 or its PEGylated derivatives produced in Examples 11 and 12 were administered subcutaneously to four Balb/c mice (8 weeks old, female) once a day for five days. Control mice were administered with the vehicle. Blood samples were taken on the sixth day and platelets in peripheral blood were counted.
# The PEGylated hIL-6 Fr120'-2 was administered to five mice once a day for five days at a dose of 1 μg/mouse and blood samples were taken on the sixth day as described in Example 13.
# [2] = Acute toxicity (Example 17); format: in vivo, Balb/c mice; details: for deaths during the ten day period after the administration: 1, 5, or 10 mg/kg s.c.; for acute LD50: s.c., ten day observation, 14400 min
# Procedure: as §1
# The acute toxicity of PEGylated hIL-6 was investigated. The hIL-6 of Example 4 or its PEGylated derivatives (Fr45-2, Fr100-2, and Fr120-2), produced in Examples 4, 11, and 12, were administered subcutaneously to five Balb/c mice (6 weeks old, male, 21-23 g weight) at a dose of either 1, 5, or 10 mg/kg weight (as polypeptide).
# [3] = Castell et al. 1988; cited from earlier work
# [4] = Table 6, 1 μg/mouse/injection s.c. once a day for five days
# [5] = Table 6, 10 μg/mouse/injection s.c. once a day for five days
# [6] = Table 6, 0.5 μg/mouse/injection s.c. once a day for five days
# [7] = Table 6, 5 μg/mouse/injection s.c. once a day for five days
# [8] = Table 7, 0.1 μg/mouse/injection s.c. once a day for five days
# [9] = Table 7, 0.5 μg/mouse/injection s.c. once a day for five days
# [10] = Table 7, 1 μg/mouse/injection s.c. once a day for five days
# [11] = Table 7, 5 μg/mouse/injection s.c. once a day for five days
# [12] = Table 7, 10 μg/mouse/injection s.c. once a day for five days
Substance,"Number of platelets (% of control) [1, 4]","Number of platelets (% of control) [1, 5]",deaths during the ten day period after the administration [2],acute LD50 [2],"Number of platelets (% of control) [1, 6]","Number of platelets (% of control) [1, 7]","Number of platelets (% of control) [1, 8]","Number of platelets (% of control) [1, 9]","Number of platelets (% of control) [1, 10]","Number of platelets (% of control) [1, 11]","Number of platelets (% of control) [1, 12]",in vivo half-life in blood [3]
"Fr100-1: fraction of PEG(10000)IL-6, average 5.3 free amino groups per molecule",100.0 % of control,211.1 % of control,–,–,–,–,–,–,–,–,–,–
"Fr100-2: fraction of PEG(10000)IL-6, average 7.4 free amino groups per molecule",148.9 % of control,250.8 % of control,None of the mice was observed to die,over 10 mg/kg weight,107.9 % of control,205.9 % of control,–,–,–,–,–,–
"Fr100-3: fraction of PEG(10000)IL-6, average 8.6 free amino groups per molecule",141.1 % of control,204.4 % of control,–,–,113.7 % of control,212.7 % of control,–,–,–,–,–,–
"Fr100-4: fraction of PEG(10000)IL-6, average 9.4 free amino groups per molecule",142.5 % of control,203.2 % of control,–,–,138.7 % of control,226.5 % of control,–,–,–,–,–,–
"Fr100-5: fraction of PEG(10000)IL-6, average 10.0 free amino groups per molecule",142.8 % of control,202.4 % of control,–,–,111.3 % of control,225.9 % of control,–,–,–,–,–,–
"Fr120-1: fraction of PEG(12000)IL-6, average 5.2 free amino groups per molecule",–,–,–,–,–,–,141.3 % of control,215.5 % of control,221.5 % of control,246.3 % of control,201.3 % of control,–
"Fr120-2: fraction of PEG(12000)IL-6, average 7.6 free amino groups per molecule",–,–,None of the mice was observed to die,over 10 mg/kg weight,–,–,167.4 % of control,227.8 % of control,233.2 % of control,244.3 % of control,213.2 % of control,–
"Fr120-3: fraction of PEG(12000)IL-6, average 8.7 free amino groups per molecule",–,–,–,–,–,–,170.1 % of control,205.9 % of control,242.7 % of control,243.1 % of control,221.4 % of control,–
"Fr120-4: fraction of PEG(12000)IL-6, average 9.2 free amino groups per molecule",–,–,–,–,–,–,161.5 % of control,203.4 % of control,221.4 % of control,229.0 % of control,200.4 % of control,–
"Fr120-5: fraction of PEG(12000)IL-6, average 9.8 free amino groups per molecule",–,–,–,–,–,–,154.1 % of control,191.5 % of control,225.4 % of control,224.8 % of control,235.9 % of control,–
"IL-6: interleukin-6, multi-functional cytokine",–,–,–,–,–,–,–,–,–,–,–,very short
